{"source": "paper PMC8342319", "about": "“Predicting blood-to-plasma concentration ratios of drugs from chemical structures and volumes of distribution in humans” (Molecular Diversity, 2021)", "key": {"plasma protein [1]": {"test_system": "plasma protein", "experiment": "Measurement of PPB by equilibrium dialysis in pooled human plasma (free fraction)", "conditions": "for fp_Human: footnote b: fu is our experimental data; for fraction unbound at 5 h, 5 µM: human", "method": "(§1) Pooled human plasma was obtained from heparinized blood from nine to ten healthy volunteers not medicated for at least seven days. The human blood collection and PPB experimental protocols were approved by the Ethical Review Committee of Japan Tobacco Inc, Central Pharmaceutical Research Institute. Informed consent was obtained from all subjects, and the PPB experiments were conducted in accordance with the Ethical Guidelines for Medical and Health Research Involving Human Subjects. Binding of compounds to plasma protein was evaluated by equilibrium dialysis utilizing a 96-well equilibrium dialysis unit and HTD96b dialysis membrane strips with a molecular cutoff of 12–14 kDa (HTDialysis, Gales Ferry, CT, USA). Plasma containing the compounds (final concentration of 5 µM) and buffer (Dulbecco’s phosphate-buffered saline; Thermo Fisher Scientific, Waltham, MA) were added into the donor and receiver cells, respectively. Following dialysis for 5 h at 37 °C, the concentrations of the compounds in the plasma and buffer were determined by liquid chromatography–tandem mass spectrometry (LC–MS/MS) (Acquity™ Ultra Performance LC I-Class and Xevo TQ-S; Waters, Milford, MA). The percentage of free fraction (fu) was calculated according to the following equation [17]:1 Freefraction(fu,%)=Concentrationofbuffer/Concentrationofplasma×100"}, "[2]": {"conditions": "human"}, "[3]": {"experiment": "Measurement of Rb (blood-to-plasma concentration ratio) in spiked human blood, LC-MS/MS", "type": "in vitro ADME", "conditions": "footnote a: Rb is our experimental data; for blood plasma ratio at 30 min, 5 µM: read-out: Rb_Human (blood-to-plasma concentration ratio); for Rb_Human: blood-to-plasma concentration ratio", "description": "Heparinized blood was collected from three to seven healthy volunteers not medicated for at least seven days. […] The blood was spiked with the compounds (final concentration of 5 µM) and incubated at 37 °C for 30 min. Following incubation, the samples were centrifuged at 5000 rpm for 5 min to obtain plasma. Subsequently, the concentrations of the compounds in the plasma were determined by LC–MS/MS using the same method as described for the measurement of PPB. Rb was calculated according to Eq. (2)."}, "[4]": {"conditions": "cited from earlier work"}, "[5]": {"conditions": "human, cited from earlier work"}, "plasma protein [6]": {"test_system": "plasma protein", "experiment": "in vitro", "conditions": "human", "method": "as §1"}, "[7]": {"conditions": "human; median if multiple values were reported; ref numbers in Table S1; cited from earlier work"}, "[8]": {"conditions": "human, intravenous, median if multiple values were reported, ref numbers in Table S1"}, "[9]": {"conditions": "intravenous, median if multiple values were reported, ref numbers in Table S1"}, "[10]": {"conditions": "human, intravenous, median if multiple values reported, Reference of Table S1"}, "[11]": {"conditions": "intravenous, median if multiple values reported, Reference of Table S1"}}, "note": "Where two headings read alike, the source gives them in different places.", "data": [{"smiles": "CO/N=C(\\C(=O)N[C@@H]1C(=O)N2C(C(=O)O)=CCS[C@H]12)c1csc(N)n1", "note": "[Ceftizoxime]", "values": [{"measurement": "fp_Human", "setting": "plasma protein [1]; human plasma free fraction", "value": 0.995}, {"measurement": "fraction unbound at 5 h, 5 µM", "setting": "plasma protein [1]; pooled human plasma", "value": 0.995}, {"measurement": "in vivo MRT_(hr)_Human", "setting": "[2]", "value": 1.706, "unit": "h"}, {"measurement": "blood plasma ratio at 30 min, 5 µM", "setting": "[3]; heparinized human whole blood", "value": 0.54}, {"measurement": "in vivo CL_(L/hr/kg)_Human", "setting": "[4]; [8]", "value": 0.126, "unit": "L/h/kg"}, {"measurement": "in vivo Vd_(L/kg)_Human", "setting": "[5]; [9]", "value": 0.215, "unit": "L/kg"}]}, {"smiles": "CN(C)CCCC1(c2ccc(F)cc2)OCc2cc(C#N)ccc21", "note": "(stereo not shown) [Citalopram]", "values": [{"measurement": "fp_Human", "setting": "plasma protein [1]; human plasma free fraction", "value": 0.396}, {"measurement": "fraction unbound at 5 h, 5 µM", "setting": "plasma protein [1]; pooled human plasma", "value": 0.396}, {"measurement": "in vivo MRT_(hr)_Human", "setting": "[2]", "value": 50.388, "unit": "h"}, {"measurement": "blood plasma ratio at 30 min, 5 µM", "setting": "[3]; heparinized human whole blood", "value": 1.39}, {"measurement": "in vivo CL_(L/hr/kg)_Human", "setting": "[4]; [8]", "value": 0.258, "unit": "L/h/kg"}, {"measurement": "in vivo Vd_(L/kg)_Human", "setting": "[5]; [9]", "value": 13.000, "unit": "L/kg"}]}, {"smiles": "O=P1(N(CCCl)CCCl)NCCCO1", "note": "(stereo not shown) [Cyclophosphamide]", "values": [{"measurement": "fp_Human", "setting": "plasma protein [1]; human plasma free fraction", "value": 0.928}, {"measurement": "fraction unbound at 5 h, 5 µM", "setting": "plasma protein [1]; plasma", "value": 0.928}, {"measurement": "in vivo MRT_(hr)_Human", "setting": "[2]", "value": 10.833, "unit": "h"}, {"measurement": "blood plasma ratio at 30 min, 5 µM", "setting": "[3]; plasma", "value": 0.92}, {"measurement": "in vivo CL_(L/hr/kg)_Human", "setting": "[4]; in vivo, iv", "value": 0.078, "unit": "L/h/kg"}, {"measurement": "in vivo Vd_(L/kg)_Human", "setting": "[5]; in vivo, iv", "value": 0.715, "unit": "L/kg"}]}, {"smiles": "O=C(O)Cc1ccccc1Nc1c(Cl)cccc1Cl", "note": "[Diclofenac]", "values": [{"measurement": "fp_Human", "setting": "plasma protein [1]; human plasma free fraction", "value": 0.00216}, {"measurement": "fraction unbound at 5 h, 5 µM", "setting": "plasma protein [1]; pooled human plasma", "value": 0.00216}, {"measurement": "in vivo MRT_(hr)_Human", "setting": "[2]", "value": 1.048, "unit": "h"}, {"measurement": "blood plasma ratio at 30 min, 5 µM", "setting": "[3]; heparinized human whole blood", "value": 0.6}, {"measurement": "in vivo CL_(L/hr/kg)_Human", "setting": "[4]; [8]", "value": 0.210, "unit": "L/h/kg"}, {"measurement": "in vivo Vd_(L/kg)_Human", "setting": "[5]; [9]", "value": 0.220, "unit": "L/kg"}]}, {"smiles": "CC(C)N(CCC(C(N)=O)(c1ccccc1)c1ccccn1)C(C)C", "note": "(stereo not shown) [Disopyramide]", "values": [{"measurement": "fp_Human", "setting": "plasma protein [1]; human plasma free fraction", "value": 0.204}, {"measurement": "fraction unbound at 5 h, 5 µM", "setting": "plasma protein [1]; pooled human plasma", "value": 0.204}, {"measurement": "in vivo MRT_(hr)_Human", "setting": "[2]", "value": 12.037, "unit": "h"}, {"measurement": "blood plasma ratio at 30 min, 5 µM", "setting": "[3]; heparinized human whole blood", "value": 0.81}, {"measurement": "in vivo CL_(L/hr/kg)_Human", "setting": "[4]; [8]", "value": 0.099, "unit": "L/h/kg"}, {"measurement": "in vivo Vd_(L/kg)_Human", "setting": "[5]; [9]", "value": 0.650, "unit": "L/kg"}]}, {"smiles": "NC(N)=Nc1nc(CSCCC(N)=NS(N)(=O)=O)cs1", "note": "[Famotidine]", "values": [{"measurement": "fp_Human", "setting": "plasma protein [1]; human plasma free fraction", "value": 1.000}, {"measurement": "fraction unbound at 5 h, 5 µM", "setting": "plasma protein [1]; pooled human plasma", "value": 1}, {"measurement": "in vivo MRT_(hr)_Human", "setting": "[2]", "value": 3.030, "unit": "h"}, {"measurement": "blood plasma ratio at 30 min, 5 µM", "setting": "[3]; heparinized human whole blood", "value": 0.74}, {"measurement": "in vivo CL_(L/hr/kg)_Human", "setting": "[4]; [8]", "value": 0.396, "unit": "L/h/kg"}, {"measurement": "in vivo Vd_(L/kg)_Human", "setting": "[5]; [9]", "value": 1.200, "unit": "L/kg"}]}, {"smiles": "NCC1(CC(=O)O)CCCCC1", "note": "[Gabapentin]", "values": [{"measurement": "fp_Human", "setting": "plasma protein [1]; human plasma free fraction", "value": 1.000}, {"measurement": "fraction unbound", "setting": "plasma protein [6]", "value": 1}, {"measurement": "in vivo MRT_(hr)_Human", "setting": "[2]", "value": 7.500, "unit": "h"}, {"measurement": "in vivo CL_(L/hr/kg)_Human", "setting": "[4]; [8]", "value": 0.102, "unit": "L/h/kg"}, {"measurement": "in vivo Vd_(L/kg)_Human", "setting": "[5]; in vivo, iv", "value": 0.765, "unit": "L/kg"}, {"measurement": "Rb_Human (blood-to-plasma concentration ratio)", "setting": "[7]", "value": 1.10}]}, {"smiles": "C[C@H]1NCc2cc(-c3ccc4c(=O)c(C(=O)O)cn(C5CC5)c4c3OC(F)F)ccc21", "note": "[Garenoxacin]", "values": [{"measurement": "fp_Human", "setting": "plasma protein [1]; human plasma free fraction", "value": 0.236}, {"measurement": "fraction unbound at 5 h, 5 µM", "setting": "plasma protein [1]; pooled human plasma", "value": 0.236}, {"measurement": "in vivo MRT_(hr)_Human", "setting": "[2]", "value": 13.550, "unit": "h"}, {"measurement": "blood plasma ratio at 30 min, 5 µM", "setting": "[3]; heparinized human whole blood", "value": 0.72}, {"measurement": "in vivo CL_(L/hr/kg)_Human", "setting": "[4]; [8]", "value": 0.074, "unit": "L/h/kg"}, {"measurement": "in vivo Vd_(L/kg)_Human", "setting": "[5]; [9]", "value": 1.000, "unit": "L/kg"}]}, {"smiles": "COc1ccc2c(c1)c(CC(=O)O)c(C)n2C(=O)c1ccc(Cl)cc1", "note": "[Indomethacin]", "values": [{"measurement": "fp_Human", "setting": "plasma protein [1]; human plasma free fraction", "value": 0.00361}, {"measurement": "fraction unbound at 5 h, 5 µM", "setting": "plasma protein [1]; pooled human plasma", "value": 0.00361}, {"measurement": "in vivo MRT_(hr)_Human", "setting": "[2]", "value": 4.958, "unit": "h"}, {"measurement": "blood plasma ratio at 30 min, 5 µM", "setting": "[3]; heparinized human whole blood", "value": 0.59}, {"measurement": "in vivo CL_(L/hr/kg)_Human", "setting": "[4]; [8]", "value": 0.095, "unit": "L/h/kg"}, {"measurement": "in vivo Vd_(L/kg)_Human", "setting": "[5]; [9]", "value": 0.595, "unit": "L/kg"}]}, {"smiles": "CC1CCCC(C)N1CCCC(O)(c1ccccc1)c1ccccn1", "note": "(stereo not shown) [Pirmenol]", "values": [{"measurement": "fp_Human", "setting": "plasma protein [1]; free fraction in human plasma", "value": 0.339}, {"measurement": "in vivo MRT_(hr)_Human", "setting": "[2]", "value": 12.500, "unit": "h"}, {"measurement": "Rb_Human", "setting": "[3]", "value": 0.86}, {"measurement": "in vivo CL_(L/hr/kg)_Human", "setting": "[4]; [10]", "value": 0.108, "unit": "L/h/kg"}, {"measurement": "in vivo Vd_(L/kg)_Human", "setting": "[5]; [11]", "value": 1.350, "unit": "L/kg"}]}, {"smiles": "CC(C)NCC(O)COc1cccc2ccccc12", "note": "(stereo not shown) [Propranolol]", "values": [{"measurement": "fp_Human", "setting": "plasma protein [1]; free fraction in human plasma", "value": 0.098}, {"measurement": "in vivo MRT_(hr)_Human", "setting": "[2]", "value": 4.653, "unit": "h"}, {"measurement": "Rb_Human", "setting": "[3]", "value": 1.08}, {"measurement": "in vivo CL_(L/hr/kg)_Human", "setting": "[4]; [10]", "value": 0.720, "unit": "L/h/kg"}, {"measurement": "in vivo Vd_(L/kg)_Human", "setting": "[5]; [11]", "value": 3.350, "unit": "L/kg"}]}]}
